Measured values reported in PMC6330446, “An integrated characterization of contractile, electrophysiological, and structural cardiotoxicity of Sophora tonkinensis Gapnep. in human pluripotent stem cell-derived cardiomyocytes” (Stem Cell Research & Therapy, 2019).
Entries after “also recorded” stand apart in the source; their conditions may differ.

How the values were obtained:
[1] = system: GCaMP hESC-CMs; format: cell-based, human; conditions: GCaMP hESC-CMs; high dose of alkaloids (50 μM), aconitine 1 μM
Procedure: The hESC-CMs in this experiment can express the GCaMP reporter gene by gene editing, and green fluorescence marker can be observed by a fluorescence microscope. The fluorescence intensity is proportional to Ca^2+ concentration. The CMs were seeded into 96-well plates at 5000/well and were administered the same as above. The fluorescence intensities of hESC-CMs were monitored using an IncuCyte™ S3 ZOOM cell imaging system (Essen BioScience, Ann Arbor, MI). Data were presented as the mean ± SEM, n ≥ 3.

[2] = system: hiPSC-CMs; test: TUNEL staining (apoptosis); format: cell-based, human; conditions: high dose of alkaloids, aconitine
Procedure: Supplementary file 13287_2018_1126_MOESM1_ESM.tif: Additional file 1: Figure S1. Effect of matrine, oxymatrine, cytisine, and sophocarpine on TUNEL staining in hiPSC-CMs. After treatment with matrine, oxymatrine, cytisine, and sophocarpine, the images of TUNEL fluorescence and bright field were acquired intuitively using IncuCyte™ S3 ZOOM cell imaging system and the fluorescence intensity was analyzed quantitatively using TissueQuest 6.0. […] The scale bar is 400 μm. Data are presented as the mean ± SEM, n ≥ 3. […] vs the control group. (TIF 23588 kb)

[3] = system: hiPSC-CMs; format: cell-based, human; conditions: hiPSC-CMs; high dose of alkaloids (50 μM), aconitine 1 μM
Procedure: Cells were incubated in a maintaining medium containing 10 μM DCFH-DA (Beyotime Biotechnology, Shanghai, China) for 30 min at 37 °C in the dark. The measurement of ROS was performed with IncuCyte™ S3 ZOOM cell imaging system (Essen BioScience, Ann Arbor, MI). TissueQuest 6.0 was used for the quantitative analysis of ROS formation. Data were presented as the mean ± SEM, n ≥ 3.

[4] = system: hiPSC-CMs; test: CK-MB and cardiac troponin I ELISA assay; format: cell-based, human; conditions: alkaloids 2, 10, 50 μM, aconitine 1 μM
Procedure: (§1) After plating for about 3 days, CMs matured and began to beat. At this time, different compounds were added, and experiments were performed 24 h after treatment. The experiments were grouped as follows: control group (normal medium); matrine, oxymatrine, sophocarpine, and cytisine treatment (2, 10, 50 μM) groups; and aconitine treatment (1 μM) group. The doses of toxicity studies above were determined by the effective therapeutic doses reported and included or exceeded the therapeutic dose.
Cell treatment method was the same as above. After the administration, the cells were digested and then destroyed by repeated freeze-thaw and sonication to release the components in the cells. Centrifuged at 2500 rpm for 20 min, the supernatant was collected for the detection of creatine kinase MB isoenzyme (CK-MB) and cardiac troponin I (CTn-I) ELISA kit (Expandbiotech, Beijing, China) following the manufacturer’s instructions. Data were presented as the mean ± SEM, n ≥ 3.

[5] = system: hiPSC-CMs; conditions: hiPSC-CMs; alkaloids 2, 10, 50 μM, aconitine 1 μM
Procedure: as §1
Cell treatment method was the same as above. After reaching the predetermined time, 120 μl of the supernatant of each well was taken for measuring LDH leakage using a commercially available kit (Beyotime Biotechnology, Shanghai, China) following the manufacturer’s instructions. Data were presented as the mean ± SEM, n ≥ 3.

[6] = system: hiPSC-CMs; conditions: hiPSC-CMs; alkaloids 2, 10, 50 μM, aconitine 1 μM; 24 h
Procedure: as §1
CMs were incubated in 10% CCK-8 (Dojindo, Kumamoto, Japan) that was diluted in normal culture medium at 37 °C until a visual color conversion occurred. The absorbance of each well was measured using a microplate reader (Spectrafluor, TECAN, Sunrise, Austria) at 450 nm. Three individual experiments were performed. All samples were operated in duplicate.
A 96-well plate was used to seed hiPSC-CMs at a concentration of 5 × 10^4 cells per well. The cultured cells were treated with different concentrations of compounds and were incubated for another 48 h. CMs were digested with trypsin, and a small amount of cell suspension was added into the same amount of trypan blue solution. Countstar Automated Cell Counter IC1000 (Elite Life Sciences, Shanghai, China) was used to count the number of total and living cells. Data were presented as the mean ± SEM, n ≥ 3.

## CCN1C[C@]2(COC)[C@H](O)C[C@H](OC)[C@@]34[C@@H]5C[C@@]6(O)[C@H](OC(=O)c7ccccc7)[C@@H]5[C@@](OC(C)=O)([C@@H]([C@H](OC)[C@H]23)[C@@H]14)[C@@H](O)[C@@H]6OC [aconitine, reference compound]
[1]
  Fluorescence intensity of calcium, [Ca^2+]i (in words): increased drastically
[2]
  TUNEL fluorescence staining (in words): huge increase
[3]
  ROS fluorescence / ROS production (in words): induced excessive ROS production
[4]
  CK-MB level (in words): induced a large amount; also recorded: increased immensely
  CTnI level (in words): induced a large amount
[5]
  LDH level in the supernatant (in words): induced a large amount; also recorded: increased immensely
[6]
  Cell viability (in words): showed a great significance
